Values of other authors, collected in patent publication US12133847B2, “Pharmaceutical composition and preparation method therefor” (Shenzhen Pharmacin Co., Ltd., priority 2014, dated 2024).
Counter-ions that a name gives are not always drawn. Like-named read-outs stand apart in the source and are kept apart here.

Tests used:
[1] = in vivo

Oral bioavailability [1] | Solubility (in acidic media) | Solubility (in neutral and alkaline media) | Solubility (physiological conditions, in the intestine near pH 7.0) | Compound
very low oral bioavailability |  |  |  | [H]/N=C(/N)c1ccc(NCc2nc3cc(C(=O)N(CCC(=O)O)c4ccccn4)ccc3n2C)cc1 [dabigatran]
 | high solubility | very poor solubility | substantially insoluble | CCCCCCOC(=O)NC(=N)c1ccc(NCc2nc3cc(C(=O)N(CCC(=O)OCC)c4ccccn4)ccc3n2C)cc1 [Dabigatran etexilate mesylate, dabigatran etexilate mesylate]
